# Literature values, collected in patent publication US10369157B1 (priority 2018, dated 2019).
# Experiments:
# [1] = system: adrenergic alpha-2 receptors
# rats = details: rat, in vivo
structure (smiles),measurement,setting,value
"Clc1cccc(Cl)c1NC1=NCCN1 [Clonidine, N-(2,6-dichlorophenyl)-4,5-dihydro-1H-imidazol-2-amine]",Absorption by the human body,in vivo,well absorbed
same,Effect on pulse rate in treated patients,patients; most patients,decrease in pulse rate
"Cc1cccc([C@H](C)c2cnc[nH]2)c1C [Dexmedotomidine, 5-[(1S)-1-(2,3-dimethylphenyl)ethyl]-1H-imidazole]",Affinity towards adrenergic alpha-2 receptors compared with Clonidine,[1],increased affinity
"CNC1(c2ccccc2Cl)CCCCC1=O (centres unmarked) [Ketamine, 2-(2-chlorophenyl)-2-(methylamino)cyclohexan-1-one]",Dose recovered through excreted feces,studies in humans,approximately 3%
same,Dose recovered through urine,studies in humans,approximately 91%
same,Clinical effects observed on patients following administration,"patients; human, in vivo","increased blood pressure, increased muscle tone (may resemble catatonia), opening of the eyes (usually accompanied by nystagmus), and increased myocardial oxygen consumption"
"Cc1ncc2n1-c1ccc(Cl)cc1C(c1ccccc1F)=NC2 [Midazolam, 8-chloro-6-(2-fluorophenyl)-1-methyl-4H-imidazo[1,5-a][1,4]benzodiazepine]",Passage through the placenta into fetal circulation,humans,slowly pass through the placenta
same,Presence in human milk,humans,small amounts
OCc1ncc2n1-c1ccc(Cl)cc1C(c1ccccc1F)=NC2 [alpha-hydroxymidazolam],Elimination half-life,metabolite,< 1 h
same,Plasma concentrations relative to the parent compound,metabolite of the sleep inducing agent,approximately 12%
same,Contribution to the effects of the sleep inducing agent,patients; intravenous administration,approximately 10%
CN1CC[C@]23c4c5ccc(O)c4O[C@H]2[C@@H](O)C=C[C@H]3[C@H]1C5 [morphine],Minimum ratio of DL50 to DE50,rats,69.5
Oc1cc(Cl)c(NC2=NCCN2)c(Cl)c1 [p-hydroxyclonidine],Pharmacological activity of the major metabolite,"patients; human, in vivo",pharmacologically inactive
CCOC(=O)C1(c2ccccc2)CCN(C)CC1 [pethidine],Minimum ratio of DL50 to DE50,rats,4.6
